Results: patent US12024507B2, “Compounds as GLP-1R agonists” (Terns Pharmaceuticals, Inc., priority 2021, dated 2024)

Legend:
human GLP-1R receptor = target: T1, human GLP-1R receptor (Homo sapiens, UniProt P43220); assay: GLP-1R cell assay (cAMP TR-FRET, low expression CHO-K1_hGLP-1Rlow_clone10 cell line); type: cell-based; conditions: CHO-K1_hGLP-1Rlow_clone10 cells, relative to control GLP-1 peptide agonist, read-out: GLP1 EC50
T1 construct: expressed in transfected cells
Description: Stable cell lines expressing high and low GLP-1R surface expression were generated in CHO-K1 cells transfected (Fugene 6) with a puromycin selectable DNA plasmid encoding human GLP-1R receptor (accession number: NM_002062.5) under control of an EF1A promoter. Transfected cells were seeded into 24-well plates (9,000 cells/well) containing complete medium and incubated in a humidified incubator at 37° C. with 5% carbon dioxide. After overnight incubation, medium was replaced with complete medium supplemented with puromycin (6 μg/mL) and refreshed every 2-3 days to select for stably transfected cells. Individual pools of selected cells were expanded prior to analysis for responsiveness to GLP-1 control peptide using a TR-FRET assay to detect cAMP (LANCE Ultra cAMP Assay, Perkin Elmer). Briefly, cells were collected in Versene solution, plated in 384-well plates (1,000 cells/well) and combined with serially diluted GLP-1R control peptide (10 nL) using an acoustic dispenser (ECHO). Plates were incubated for 30 minutes at 25° C. prior to the addition of EU-cAMP tracer (5 μL) and Ulight-anti-cAMP (5 μL) reagents to each well, followed by 15 minutes incubation at 25° C. TR-FRET signal was detected using an EnVision Multimode Plate Reader (excitation=320 nm; emission=615 and 655 nm). Dose-response curves were used to generate EC50 values as a measure of responsiveness to the GLP-1R control peptide. Selected cell lines were monitored for responsiveness over multiple passages to ensure stability. […] Briefly, GLP-1R expression was analyzed by flow cytometry using a fluorescein-labeled Exendin-4 peptide fluorescent probe (FLEX). Cells were harvested in Versene solution and washed 3-times with PBS+0.5% BSA before incubation with FLEX reagent (10 μM) for 2 hours at room temperature. After incubation, cells were washed 3-times in PBS+0.5% BSA before final resuspension in PBS prior to analysis by flow cytometry to measure FLEX mean fluorescence intensity (MFI) as a measure of GLP-1R expression on the cell surface.
For compound testing in the CHO-K1_hGLP-1Rlow_clone10 cell line, cells were seeded in 384-well plates (1,000 cells/well). Test compounds were serially diluted in DMSO (10-point, 3-fold dilution), added to wells using an ECHO dispenser (10 nL/well) and plates were centrifuged for 1 min and agitated for 2 min at room temperature prior to 30-minute incubation at 25° C. After incubation, Eu-cAMP (5 μL) and Ulight-anti-cAMP (5 μL) reagents were added to each well, followed by centrifugation for 1 minute, agitation for 2 minutes at room temperature, and final incubation of the plates at 25° C. for 15 minutes. Plates were read using an EnVision microplate reader (excitation=320 nm; emission=615 and 655 nm). Dose-response curves were generated from duplicate wells based on percent activation calculated relative to a control GLP-1 peptide agonist that was run in parallel. EC50 values were determined by fitting percent activation as a function of compound concentration using the Hill equation (XLfit).
The compounds tested were compound samples prepared according to the General Procedures described in the Examples section.

[1] = Metabolic stability in human hepatocytes; type: in vitro ADME; conditions: cryopreserved hepatocytes, 1×10^6 cells/mL; for CLint scaled at 1 μM: intrinsic clearance; for half-life at 1 μM: read-out: Human T1/2
Description: (§1) Test compounds were incubated in rat and human hepatocytes and stability was assessed from the substrate […] approach. Test compounds were dissolved in dimethyl sulfoxide (DMSO) to create a 10 mM Stock, and then further diluted to create a 1000×Working Stock of 1 mM with DMSO in 96-well plates for test compounds and the positive control (midazolam). Vials containing cryopreserved hepatocytes were removed from the liquid nitrogen tank and immediately immersed in a 37° C. water bath. The vials were shaken gently until the contents had thawed and were then immediately emptied into 48 mL of pre-warmed HT Medium in a 50 mL conical tube. Cells remaining in the vial were resuspended with 1.0 mL of pre-warmed HT Medium and added to the conical tube. The tube was capped and then gently inverted several times to resuspend the hepatocytes. The cell suspension was centrifuged at 50×g at room temperature for 5 minutes and the supernatant discarded. The cell pellet was loosened by gently swirling the centrifuge tube and was re-suspended in 4 mL of warm Dulbecco's Modified Eagle medium (DMEM). Cell density was determined by a cell counter by Nexcelom, and DMEM medium was added to obtain a target density of 1×10^6 cells/mL. The assay was carried out in 96-well microtiter plates. Test Compounds were incubated at 1 μM with 1×10^6 cells/mL hepatocytes in DMEM for 0, 30, 60, 120 and 240 minutes. The incubation was carried out with gentle shaking at 37° C. under a humid atmosphere of 95% air/5% CO2. The volume of the incubation mixture was 37 μL with a final 0.1% DMSO. At each of the time points, the incubation was stopped by adding 150 μL quenching solution (100% acetonitrile, 0.1% formic acid containing bucetin as an internal standard for positive ESI mode). Subsequently, the mixtures were vortexed for 20 min and centrifuged at 4,000 RPM at 10° C. The supernatant (80 μL) was transferred to a clean 96-well plate and analyzed by LC-MS/MS. Midazolam at 1 μM with a final 0.1% DMSO was included as a positive control to verify assay performance. The percent parent remaining, intrinsic and predicted hepatic clearance and t1/2 were calculated. All samples were analyzed by LC-MS/MS using an AB Sciex API 4000 instrument, coupled to a Shimadzu LC-20AD LC Pump system. Separation was achieved using a Waters Atlantis T3 dC18 reverse phase HPLC column (20 mm×2.1 mm) at a flow rate of 0.5 mL/min. The mobile phase consisted of 0.1% formic acid in water (solvent A) and 0.1% formic acid in 100% acetonitrile (solvent B). Elution conditions are detailed below.
(§2) The ion optics of each test compound were optimized for their declustering potential (DP), […] (CE), collision-cell exit potential (CXP) and used in a selected ion monitoring experiment in the positive ion mode. The peak area ratio of each test compound to internal standard was then evaluated for stability. The extent of metabolism was calculated based on the disappearance of the test compound, compared to its initial concentration. The initial rates of clearance of the test compound were calculated using the linear regression plot of semi-log % remaining of the compound versus time.
(§3) The predicted hepatic clearance (CLhep) was calculated using the well stirred method with the following formula with CLint(in vivo) normalized based on liver weight: CLint(in vivo)=CLint×Hepatocellularity×liver weight CLhep predicted=(CLint(in vivo)×Qliver)/(CLint(in vivo)+Qliver) Where Qliver ((ml/min/kg) is Liver Blood Flow
(§4) The relevant physiological parameters of liver weight, blood flow, and hepatocellularity for various species are listed below:
(§5) Results are presented in the Table B3 below for the intrinsic clearance (mL/min/kg) and half-life (t1/2).

[2] = Metabolic stability in rat hepatocytes; type: in vitro ADME; conditions: cryopreserved hepatocytes, 1×10^6 cells/mL; for CLint scaled at 1 μM: intrinsic clearance; for half-life at 1 μM: read-out: Rat T1/2
Description: as §1, §2, §3, §4, §5

T1 sequence (P43220 24-463): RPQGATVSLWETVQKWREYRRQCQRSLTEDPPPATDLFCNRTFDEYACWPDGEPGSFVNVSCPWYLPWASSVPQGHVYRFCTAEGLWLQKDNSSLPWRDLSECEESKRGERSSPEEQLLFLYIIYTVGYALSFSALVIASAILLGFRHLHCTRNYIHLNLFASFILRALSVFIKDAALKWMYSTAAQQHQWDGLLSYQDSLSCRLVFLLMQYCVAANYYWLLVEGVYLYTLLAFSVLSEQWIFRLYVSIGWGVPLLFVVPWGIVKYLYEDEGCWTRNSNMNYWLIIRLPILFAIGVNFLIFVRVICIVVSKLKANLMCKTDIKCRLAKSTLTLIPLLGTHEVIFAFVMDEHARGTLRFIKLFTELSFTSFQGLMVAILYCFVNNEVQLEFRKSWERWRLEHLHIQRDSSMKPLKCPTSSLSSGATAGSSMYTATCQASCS

Compound: N#Cc1ccc(COc2cccc(C3CCN(Cc4nc5ccc(-c6nc(=O)[nH]o6)cc5n4Cc4cncs4)CC3)n2)c(F)c1 [Compound 13, 3-fluoro-4-(((6-(1-((6-(3-oxo-2,3-dihydro-1,2,4-oxadiazol-5-yl)-1-(thiazol-5-ylmethyl)-1H-benzo[d]imidazol-2-yl)methyl)piperidin-4-yl)pyridin-2-yl)oxy)methyl)benzonitrile]
- EC50 (human GLP-1R receptor): 25.2 nM
- CLint scaled at 1 μM [1]: 35.8 ± 1.06 mL/min/kg
- half-life at 1 μM [1]: 1.12 ± 0.0332 h
- CLint scaled at 1 μM [2]: 111 ± 2.29 mL/min/kg
- half-life at 1 μM [2]: 0.501 ± 0.0103 h

Compound: N#Cc1ccc(COc2cccc(C3CCN(Cc4nc5ccc(-c6nnn[nH]6)cc5n4C[C@@H]4CCO4)CC3)n2)c(F)c1 [Compound 8]
- EC50 (human GLP-1R receptor): 15 nM
- CLint scaled at 1 μM [1]: 7.99 ± 0.99 mL/min/kg
- half-life at 1 μM [1]: 5.02 ± 0.623 h
- CLint scaled at 1 μM [2]: 46.5 ± 2.11 mL/min/kg
- half-life at 1 μM [2]: 1.19 ± 0.054 h
